Source: patent publication US20180311342A1, “IMMUNOSTIMULATING AGENT” (AJINOMOTO CO., INC., priority 2017, published 2018)

Experiments:
Type in all cases: in vivo, BALB/c mice
[1] = tested on: anti-OVA-specific IgG2a subclass antibody; assay: Adjuvant activity test: anti-OVA-specific IgG2a subclass antibody in serum of OVA-immunized mice (ELISA); settings: after primary immunization, serum 2 weeks later; OVA 5 μg + compound 0.256 μmol in 5% αCD-added saline (Addavax mixed with saline at 1:1), dorsal-subcutaneous; compared to OVA single administration group
[2] = tested on: anti-OVA-specific IgG1 and IgG2a subclass antibody production; assay: Evaluation test of adjuvant activity (overall conclusion from anti-OVA IgG1 and IgG2a production); settings: compound 0.256 μmol in 5% αCD-added saline with OVA 5 μg, dorsal-subcutaneous
Procedure: 8-Week-old female BALB/c mice were divided into groups (N=6), and each group was primarily immunized by dorsal-subcutaneous administration of (1) ovalbumin (OVA) (5 μg) dissolved in saline as an antigen (OVA single administration group), (2) OVA 5 μg and Addavax™ (mixed with saline at 1:1) dissolved in saline (Addavax™ administration group) as positive control adjuvant, (3) OVA 5 μg and SZ137 0.256 μmol dissolved or dispersed in 5% α-cyclodextrin (hereinafter to be simply referred to as αCD)-added saline (SZ137 administration group), (4) OVA (5 μg) and SZ138 (0.256 μmol) dissolved or dispersed in 5% αCD-added saline (SZ138 administration group), (5) OVA (5 μg) and SZ142 (0.256 μmol) dissolved or dispersed in 5% αCD-added saline (SZ142 administration group), (6) OVA (5 μg) and SZ144 (0.256 μmol) dissolved or dispersed in 5% αCD-added saline (SZ144 administration group), (7) OVA (5 μg) and SZ145 (0.256 μmol) dissolved or dispersed in 5% αCD-added saline (SZ145 administration group), (8) OVA (5 μg) and SZ146 (0.256 μmol) dissolved or dispersed in 5% αCD-added saline (SZ146 administration group), (9) OVA (5 μg) and SZ147 (0.256 μmol) dissolved or dispersed in 5% αCD-added saline (SZ147 administration group), (10) OVA (5 μg) and SZ148 (0.256 μmol) dissolved or dispersed in 5% αCD-added saline (SZ148 administration group), each per mouse. Two week later, the secondary immunization was carried out by dorsal-subcutaneous administration of solutions or dispersions similar to those of the above-mentioned (1)-(10) again. […]
To a 96 well plate was added 5 μg/ml OVA at 100 µl/well, and the mixture was incubated at 4° C. overnight. After incubation, the mixture was washed three times with 200 μl of PBS-T (PBS (phosphate buffered saline)+0.05% (v/v) Tween 20) per well, and blocked with 100 μl of 5% FCS (fetal calf serum)/PBS solution per well at room temperature for 1-2 hr. Thereafter, the mixture was washed three times with PBS-T (200 μl/well), a diluted serum sample (100 l/well) or the same amount of 5% FCS/PBS solution as a control was added, and the mixture was incubated at 37° C. for 1 hr. To calculate concentration of the antibody, the standard of an anti-OVA-specific IgG1 subclass antibody diluted with 2% FCS/PBS solution was added at 100 ng/ml, 50 ng/ml, 25 ng/ml, 12.5 ng/ml, 6.25 ng/ml, 3.125 ng/ml, 1.56 ng/ml, 0.781 ng/ml, 0.391 ng/ml, 0.195 ng/ml, 0.098 ng/ml, 0 ng/ml, per 1 well. When an anti-OVA-specific IgG2a subclass antibody was measured, the standard of an anti-OVA-specific IgG2a subclass antibody was added at 50 ng/ml, 25 ng/ml, 12.5 ng/ml, 6.25 ng/ml, 3.125 ng/ml, 1.56 ng/ml, 0.781 ng/ml, 0.391 ng/ml, 0.195 ng/ml, 0.098 ng/ml, 0.049 ng/ml, 0 ng/ml, per 1 well. Thereafter, similar to the samples, the mixture was washed five times with PBS-T (200 μl/well), a diluted biotinylated anti-mouse IgG1 antibody and IgG2a antibody were added (100 μl/well), and the mixture was incubated at 37° C. for 45 min. Thereafter, the mixture was washed five times with PBS-T (200 μl/well), a diluted anti-biotin-HRP antibody was added (100 μl/well), and the mixture was incubated at 37° C. for another 30 min. Thereafter, the mixture was washed five times with PBS-T (200 μl/well), TMB substrate solution was added (100 μl/well), and the mixture was incubated at room temperature for 10-15 min. Thereafter, a reaction quenching liquid (2N sulfuric acid solution) was added (50 l/well) to discontinue a color developing reaction, and the absorbance (OD Value=450 nm) was measured by a microplate reader. A standard curve was drawn from the measured OD values, and the concentration was calculated. […]

[3] = tested on: anti-OVA-specific IgG1 subclass antibody; assay: Adjuvant activity test: anti-OVA-specific IgG1 subclass antibody in serum of OVA-immunized mice (ELISA); settings: after primary immunization, serum 2 weeks later; OVA 5 μg + compound 0.256 μmol in 5% αCD-added saline (Addavax mixed with saline at 1:1), dorsal-subcutaneous; compared to OVA single administration group
[4] = conclusion from IgG1/IgG2a after primary immunization
[5] = conclusion from IgG1/IgG2a after secondary immunization

For `CCCCCCCCCCCCCCCCNC(=O)N[C@@H](CC(C)C)C(=O)NCCCCCCCC` [SZ201, (2S)-2-(hexadecylcarbamoylamino)-4-methyl-N-octyl-pentanamide], the “anti-OVA-specific IgG2a subclass antibody production” value [1] was “tended to increase”, the adjuvant activity [2, 4] was “have an adjuvant activity” and the adjuvant activity [2, 5] was “have an adjuvant activity”. The “anti-OVA-specific IgG1 subclass antibody production” value [3] was “tended to increase”.

`CCCCCCCCCCCCCCCCCCCC(=O)N[C@@H](CCCNC(=N)N)C(=O)NCCCCCCCC.Cl` [SZ183, N-[(1S)-4-guanidino-1-(octylcarbamoyl)butyl]icosanamide hydrochloride] was tested, and the “anti-OVA-specific IgG2a subclass antibody production” value [1] was “significant enhancement”, the adjuvant activity [2, 4] was “have an adjuvant activity” and the adjuvant activity [2, 5] was “have an adjuvant activity”. For the same molecule, the “anti-OVA-specific IgG1 subclass antibody production” value [3] was “significant enhancement”.

For `CCCCCCCCCCCCCCCCOC(=O)N[C@@H](CCCCN)C(=O)NCCCCCCCC.Cl` [SZ188, hexadecyl N-[(1S)-5-amino-1-(octylcarbamoyl)pentyl]carbamate hydrochloride], the “anti-OVA-specific IgG2a subclass antibody production” value [1] was “a tendency toward increase was found”, the adjuvant activity [2, 4] was “have an adjuvant activity” and the adjuvant activity [2, 5] was “have an adjuvant activity”. For the same molecule, the “anti-OVA-specific IgG1 subclass antibody production” value [3] was “a tendency toward increase was found”.

`CCCCCCCCCCCCCCCCCCCCCC(=O)N[C@@H](C)C(=O)NCCCCCCCCCCCC` [SZ145, N-[(1S)-2-(dodecylamino)-1-methyl-2-oxo-ethyl]docosanamide] was tested, and the adjuvant activity [2, 5] was “have an adjuvant activity”.

In the case of `CCCCCCCCCCCCCCCCCCCCCC(=O)N1CCC(C(=O)NCCCCCCCCCCCC)CC1` [SZ156, 1-docosanoyl-N-dodecyl-piperidine-4-carboxamide], the adjuvant activity [2, 5] is reported as “have an adjuvant activity”.

With `CCCCCCCCCCCCCCCCCCCCCC(=O)N[C@@H](CCCNC(=N)N)C(=O)NCCCCCCCCCCCC.Cl` [SZ138, N-[(1S)-1-(dodecylcarbamoyl)-4-guanidino-butyl]docosanamide hydrochloride] the adjuvant activity [2, 5] was “have an adjuvant activity”.

In the case of `CCCCCCCCCCCCCCCCNC(=O)N[C@@H](CCCNC(=N)N)C(=O)NCCCCCC.Cl` [SZ168, (2S)-5-guanidino-2-(hexadecylcarbamoylamino)-N-hexyl-pentanamide hydrochloride], the adjuvant activity [2, 5] is reported as “have an adjuvant activity”.

With `CCCCCCCCCCCCCCCCCCCCCC(=O)N[C@@H](CC(C)C)C(=O)NCCCCCCCCCCC` [SZ142, N-[(1S)-3-methyl-1-(undecylcarbamoyl)butyl]docosanamide] the adjuvant activity [2, 5] was “have an adjuvant activity”.

In the case of `CCCCCCCCCCCCCCCCCCCCCC(=O)NCC(C)(C)C(=O)NCCCCCCCCCCCC` [SZ148, N-[3-(dodecylamino)-2,2-dimethyl-3-oxo-propyl]docosanamide], the adjuvant activity [2, 5] is reported as “have an adjuvant activity”.

With `CCCCCCCCCCCCCCCCCCCCCC(=O)NC(C)(C)C(=O)NCCCCCCCCCCCC` [SZ146, N-[2-(dodecylamino)-1,1-dimethyl-2-oxo-ethyl]docosanamide] the adjuvant activity [2, 5] was “have an adjuvant activity”.

In the case of `CCCCCCCCCCCCCCCCOC(=O)N[C@@H](CCCNC(=N)N)C(=O)NCCCCCC.Cl` [SZ169, Hexadecyl N-[(1S)-4-guanidino-1-(hexylcarbamoyl)butyl]carbamate hydrochloride], the adjuvant activity [2, 5] is reported as “have an adjuvant activity”.

`CCCCCCCCCCCCCCCCCCCCCC(=O)N[C@@H](CCCN)C(=O)NCCCCCCCCCCCC.Cl` [SZ165, N-[(1S)-4-amino-1-(dodecylcarbamoyl)butyl]docosanamide hydrochloride] was tested, and the adjuvant activity [2, 5] was “have an adjuvant activity”.

With `CCCCCCCCCCCCCCCCCCCCCC(=O)N[C@@H](CCCCNC(C)=O)C(=O)NCCCCCCCCCCCC` [SZ167, N-[(1S)-5-acetamide-1-(dodecylcarbamoyl)pentyl]docosanamide] the adjuvant activity [2, 5] was “have an adjuvant activity”.

For `CCCCCCCCCCCCCCCCCCCCCC(=O)N[C@@H](CCCCN)C(=O)NCCCCCCCCCCCC.Cl` [SZ160, N-[(1S)-5-amino-1-(dodecylcarbamoyl)pentyl]docosanamide hydrochloride], the adjuvant activity [2, 5] was “have an adjuvant activity”.

For `CCCCCCCCCCCCCCCCCCCCCC(=O)N[C@@H](CCCNC(=N)N)C(=O)NCCCCCCC.Cl` [SZ163, N-[(1S)-4-guanidino-1-(heptylcarbamoyl)butyl]docosanamide hydrochloride], the adjuvant activity [2, 5] was “have an adjuvant activity”.

For `CCCCCCCCCCCCCCCCCCCCCC(=O)N[C@@H](CCCCNC(=N)N)C(=O)NCCCCCCCCCCCC.Cl` [SZ166, N-[(1S)-1-(dodecylcarbamoyl)-5-guanidino-pentyl]docosanamide hydrochloride], the adjuvant activity [2, 5] was “have an adjuvant activity”.

`CCCCCCCCCCCCCCCCCCCCCC(=O)N[C@@H](CCCCNC(=N)N)C(=O)NCCCCCC.Cl` [SZ170, N-[(1S)-5-guanidino-1-(hexylcarbamoyl)pentyl]docosanamide hydrochloride] was tested, and the adjuvant activity [2, 5] was “have an adjuvant activity”.

In the case of `CCCCCCCCCCCCCCCCCCCCCC(=O)NCCC(=O)NCCCCCCCCCCCC` [SZ147, N-[3-(dodecylamino)-3-oxo-propyl]docosanamide], the adjuvant activity [2, 5] is reported as “have an adjuvant activity”.

For `CCCCCCCCCCCCCCCC(=O)N[C@@H](CCCCN)C(=O)NCCCCCCCCCCCC.Cl` [SZ153, N-[(1S)-5-amino-1-(dodecylcarbamoyl)pentyl]hexadecanamide hydrochloride], the adjuvant activity [2, 5] was “have an adjuvant activity”.

For `CCCCCCCCCCCCCCCCCCCCCC(=O)N[C@@H](CCCC)C(=O)NCCCCCCCCCCCC` [SZ155, N-[(1S)-1-(dodecylcarbamoyl)pentyl]docosanamide], the adjuvant activity [2, 5] was “have an adjuvant activity”.

For `CCCCCCCCCCCCCCCCCCCCCC(=O)N[C@@H](CCCNC(=N)N)C(=O)N(CCCCCCC)CCCCCCC.Cl` [SZ159, N-[(1S)-1-(diheptylcarbamoyl)-4-guanidino-butyl]docosanamide hydrochloride], the adjuvant activity [2, 5] was “have an adjuvant activity”.

With `CCCCCCCCCCCCCCCC(=O)N[C@@H](CC(C)C)C(=O)NCCCCCCCCCCCC` [SZ144, N-[(1S)-1-(dodecylcarbamoyl)-3-methyl-butyl]hexadecanamide] the adjuvant activity [2, 5] was “have an adjuvant activity”.

`CCCCCCCC/C=C/CCCCCCCC(=O)N[C@@H](CCCNC(=N)N)C(=O)NCCCCCCCCCCCC.Cl` [SZ161, (E)-N-[(1S)-1-(dodecylcarbamoyl)-4-guanidino-butyl]octadeca-9-enamide hydrochloride] was tested, and the adjuvant activity [2, 5] was “have an adjuvant activity”.

For `CCCCCCCCCCCCCCCCOC(=O)N[C@@H](CCCNC(=N)N)C(=O)NCCCCCCCCCCCC.Cl` [SZ150, Hexadecyl N-[(1S)-1-(dodecylcarbamoyl)-4-guanidino-butyl]carbamate hydrochloride], the adjuvant activity [2, 5] was “have an adjuvant activity”.
